23 compounds from ChEMBL document CHEMBL3751732 (Bioorg Med Chem Lett, 2016) can be followed below.

Assay [1] deals with Histamine H1 receptor (Homo sapiens, UniProt P35367). Put plainly: Displacement of [3H]mepyramine from human histamine 1 receptor expressed in Sf9 cell membranes by liquid scintillation counting. (In general: In a radioligand displacement assay an active substance lowers the binding of a labelled ligand.)
Assay [2] deals with T1, Histamine H4 receptor (Homo sapiens, UniProt Q9H3N8). In words: Displacement of [3H]histamine from human histamine 4 receptor expressed in Sf9 cell membranes by liquid scintillation counting.
Assay [3] concerns the target Histamine H3 receptor (Homo sapiens, UniProt Q9Y5N1). Put plainly: Displacement of [3H]Nalpha-methylhistamine from human histamine 3 receptor expressed in Sf9 cell membranes by liquid scintillation counting.
Assay [4] has as its target T1, Histamine H4 receptor. In words: Antagonist activity at human histamine 4 receptor expressed in Sf9 cell membranes co-expressing Galphai2 and Gbeta1gamma2 assessed as [35S]GTPgammaS binding by scintillation counting. Type of assay: functional. For orientation: GTPγS is a poorly hydrolysed GTP analogue; its binding reports G protein activation.
The target in assay [5] is Histamine H2 receptor (Homo sapiens, UniProt P25021). In words: Displacement of [3H]UR-DE257 from human histamine 2 receptor expressed in Sf9 cell membranes by liquid scintillation counting.
For assay [6], the target named is T1, Histamine H4 receptor. Put plainly: Antagonist activity at human histamine 4 receptor expressed in Sf9 cell membranes co-expressing Galphai2 and Gbeta1gamma2 assessed as [35S]GTPgammaS binding by scintillation counting relative to control histamine. Type of assay: functional.

Calls of active or inactive are those of the source. The calls are words filed in the database; no cut-off is given here.

Sequence of Histamine H2 receptor (P25021 whole entry): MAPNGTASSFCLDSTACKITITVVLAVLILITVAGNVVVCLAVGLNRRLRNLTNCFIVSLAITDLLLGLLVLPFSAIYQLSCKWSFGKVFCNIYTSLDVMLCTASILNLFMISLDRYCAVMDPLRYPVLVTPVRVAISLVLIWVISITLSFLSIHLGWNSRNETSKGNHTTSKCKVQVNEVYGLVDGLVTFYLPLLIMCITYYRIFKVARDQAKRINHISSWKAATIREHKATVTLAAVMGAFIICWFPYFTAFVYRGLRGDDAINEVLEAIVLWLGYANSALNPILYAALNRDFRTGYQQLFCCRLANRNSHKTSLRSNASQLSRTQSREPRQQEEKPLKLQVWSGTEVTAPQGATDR
Sequence of Histamine H3 receptor (Q9Y5N1 whole entry): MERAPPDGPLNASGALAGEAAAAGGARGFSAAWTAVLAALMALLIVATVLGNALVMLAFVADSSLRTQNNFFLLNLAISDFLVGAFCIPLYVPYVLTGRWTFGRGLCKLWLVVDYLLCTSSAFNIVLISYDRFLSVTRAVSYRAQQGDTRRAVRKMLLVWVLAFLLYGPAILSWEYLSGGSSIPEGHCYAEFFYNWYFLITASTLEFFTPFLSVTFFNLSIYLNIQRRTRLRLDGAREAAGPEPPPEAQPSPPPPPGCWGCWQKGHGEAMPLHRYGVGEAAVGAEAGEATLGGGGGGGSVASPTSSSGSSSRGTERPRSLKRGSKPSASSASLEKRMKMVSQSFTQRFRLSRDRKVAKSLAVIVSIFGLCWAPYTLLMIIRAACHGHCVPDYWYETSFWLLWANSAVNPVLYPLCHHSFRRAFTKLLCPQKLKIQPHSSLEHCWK
T1 sequence (Q9H3N8 whole entry): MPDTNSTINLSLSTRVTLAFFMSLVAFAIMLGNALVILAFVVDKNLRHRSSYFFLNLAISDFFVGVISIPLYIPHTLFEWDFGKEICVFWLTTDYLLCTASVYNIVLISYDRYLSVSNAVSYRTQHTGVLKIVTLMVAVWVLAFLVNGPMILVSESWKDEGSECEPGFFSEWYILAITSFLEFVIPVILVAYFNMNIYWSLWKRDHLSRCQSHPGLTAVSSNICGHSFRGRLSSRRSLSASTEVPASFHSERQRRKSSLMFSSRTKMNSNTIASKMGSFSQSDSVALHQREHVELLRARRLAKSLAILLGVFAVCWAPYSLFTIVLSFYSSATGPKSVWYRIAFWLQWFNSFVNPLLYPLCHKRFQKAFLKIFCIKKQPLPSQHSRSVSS
Sequence of Histamine H1 receptor (P35367 whole entry): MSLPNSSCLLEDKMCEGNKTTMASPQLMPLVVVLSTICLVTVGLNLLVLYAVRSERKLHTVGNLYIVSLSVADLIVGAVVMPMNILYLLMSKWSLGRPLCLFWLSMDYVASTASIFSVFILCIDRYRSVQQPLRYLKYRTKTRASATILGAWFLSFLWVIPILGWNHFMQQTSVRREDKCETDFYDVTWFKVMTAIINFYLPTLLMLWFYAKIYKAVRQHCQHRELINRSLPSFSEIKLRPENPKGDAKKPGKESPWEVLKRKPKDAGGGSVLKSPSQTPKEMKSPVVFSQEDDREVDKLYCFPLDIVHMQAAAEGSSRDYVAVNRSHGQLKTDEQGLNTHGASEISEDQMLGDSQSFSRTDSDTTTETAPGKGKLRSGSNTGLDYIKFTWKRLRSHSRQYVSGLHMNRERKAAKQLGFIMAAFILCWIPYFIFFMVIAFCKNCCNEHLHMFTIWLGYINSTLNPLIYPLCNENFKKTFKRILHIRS

The Ki is a measure of affinity in units of concentration, obtained from inhibition or displacement. For `CN1CCN(c2nc3c(c(N4CCN(C)CC4)n2)-c2ccccc2CC3)CC1`, the figures for the Ki in assay [1] and in assay [2] were 1.17 µM and 7.76 µM, respectively.

For the compound `COc1ccc(CNc2nc(N3CCN(C)CC3)nc3c2CCc2ccccc2-3)cc1-c1ccc(Cl)cc1`, the inhibition constant Ki is 6.31 µM in assay [1] and 19.5 µM in assay [2].

Regarding `COc1ccc(CNc2nc3c(c(N4CCN(C)CC4)n2)-c2ccccc2CC3)cc1`, the inhibition constant (Ki) in assay [1] is 1.07 µM; in assay [2], 13.8 µM.

As a reminder, the EC50 is the concentration needed to bring the measured effect to its halfway point. Consider `CN1CCN(c2nc(NCc3ccccc3)nc3c2CCc2ccccc2-3)CC1`, for which the inhibition constant Ki in assay [1] was 2.09 µM; in assay [3], 6.03 µM; in assay [2], 1.58 µM; in assay [5], 6.92 µM. For the same compound, in assay [4], the concentration for a half-maximal effect (EC50) was 0.933 µM. Moreover, the Ratio in assay [6] is -1.01.

Take `CN1CCN(c2cc(-c3ccccc3)nc(NCc3ccccc3)n2)CC1`: the inhibitory constant (Ki) is 1.12 µM in assay [1], 2.51 µM in assay [3], 0.955 µM in assay [2] and 10.2 µM in assay [5]. In addition, the EC50 in assay [4] was 0.912 µM. Besides, the Ratio in assay [6] was -1.27.

Consider `COc1ccc(CNc2nc3c(c(N4CCN(C)CC4)n2)CCc2ccccc2-3)cc1`, for which the inhibition constant (Ki) was 5.75 µM in assay [1] and 4.27 µM in assay [2].

With `CN1CCN(c2nc(NCCc3ccccc3)nc3c2CCc2ccccc2-3)CC1`, the inhibitory constant (Ki) was 9.33 µM in assay [1] and 9.12 µM in assay [2].

Take `CN1CCN(c2nc(NCCc3ccccc3)nc3c2-c2ccccc2CC3)CC1`: the inhibition constant (Ki) in assay [1] is 1.86 µM; in assay [2] it was 6.76 µM.

Regarding `COc1ccc(CNc2cc(-c3ccccc3)nc(N(C)C)n2)cc1`, the pKi entry in assay [1] and in assay [2] was “inactive” each time.

Regarding `CN1CCN(C2=Nc3ccc(Cl)cc3Oc3ccccc32)CC1`, the inhibitory constant (Ki) in assay [1] is 0.00832 µM.

Regarding `COc1ccc(CNc2nc(-c3ccccc3)cc(N3CCN(C)CC3)n2)cc1`, the Ki was 5.25 µM in assay [1] and 1.74 µM in assay [2].

In the case of `CN1CCN(c2nc(N)nc3c2CCc2ccccc2-3)CC1`, the Ki is 9.12 µM in assay [1], 9.77 µM in assay [3], 0.186 µM in assay [2] and 31.6 µM in assay [5]. Also, the EC50 in assay [4] was 0.295 µM. For the same compound, the Ratio in assay [6] is -0.47.

Regarding `CN1CCN(c2nc(NCc3ccccc3)nc3c2-c2ccccc2CC3)CC1`, the Ki is 1.91 µM in assay [1] and 26.3 µM in assay [2].

In assay [1], `CN1CCN(c2nc(NCc3cccs3)c3cc(Cl)ccc3n2)CC1` showed an inhibition constant Ki of 0.55 µM.

Regarding `CN1CCN(c2nc(NCCc3ccccc3)c3c(n2)-c2ccccc2CC3)CC1`, the Ki in assay [1] was 8.13 µM; in assay [2] it was 15.1 µM.

In the case of `COc1ccc(CNc2cc(-c3ccccc3)nc(N3CCN(C)CC3)n2)cc1`, the Ki was 4.17 µM in assay [1] and 72.4 µM in assay [2].

`CN1CCN(c2nc(NCc3ccccc3)c3c(n2)-c2ccccc2CC3)CC1`: the Ki in assay [1] is 0.891 µM; in assay [2], 14.5 µM.

`CN1CCN(c2nc(NCCc3ccccc3)cc(-c3ccccc3)n2)CC1`: the results for the inhibition constant Ki in assay [1] and in assay [2] were 1.95 µM and 36.3 µM, respectively.

With `Cc1ccc(CNc2nc3c(c(N4CCN(C)CC4)n2)CCc2ccccc2-3)cc1`, the Ki in assay [1] is 3.39 µM; in assay [2], 20 µM.

In the case of `CN1CCN(c2nc(NCc3ccccc3)cc(-c3ccccc3)n2)CC1`, the Ki in assay [1] is 2.51 µM; in assay [2] it was 31.6 µM.

As to `CN(C)c1nc(NCCc2ccccc2)cc(-c2ccccc2)n1`, the pKi entry in assay [1] and in assay [2] was “inactive” each time.

For the compound `CN1CCN(c2cc(-c3ccccc3)nc(NCCc3ccccc3)n2)CC1`, the Ki is 3.31 µM in assay [1] and 9.77 µM in assay [2].

Take `CN1CCN(c2nc(NCc3ccc(F)cc3)nc3c2CCc2ccccc2-3)CC1`: the inhibition constant Ki in assay [1] was 1.95 µM; in assay [2], 11 µM.
